Reference: patent US20230096789A1, “PHARMACEUTICAL COMPOSITION FOR INHIBITING INFLAMMATORY RESPONSE COMPRISING HYDROXYUREA” (priority 2020, published 2023)
Read-outs that look alike come from different tables or passages of the source.

Key:
H1N1 PR8 = test: In vitro antiviral effect, MTT cell viability in infected MDCK cells; assay type: cell-based, influenza A virus; conditions: 0.001 pfu/cell, 72 hours, hydroxyurea up to 1,561 μg/ml
H3N2 HongKong = test: as above; assay type: cell-based, influenza A virus; conditions: 0.001 pfu/cell, 72 hours, hydroxyurea up to 1,561 μg/ml
Lee = test: as above; assay type: cell-based, influenza B virus; conditions: 0.001 pfu/cell, 72 hours, hydroxyurea up to 1,561 μg/ml
[1] = tested on: mice infected with H1N1 influenza A (PR8 strain) virus; assay type: in vivo, mice (BALB/c)
[2] = tested on: mice with sepsis induced by the Western Reserve strain of vaccinia virus; conditions: mouse, in vivo
[3] = tested on: mice given wild-type WR strain of vaccinia virus; test: Histological analysis (H&E) of liver and lung tissues after wild-type WR vaccinia virus (Experimental Example 2.2); assay type: in vivo; conditions: wild-type WR 1×10^7 pfu intranasal, HU 50 mg/kg, G-CSF 25 μg/kg
[4] = tested on: mice infected with the WR strain of vaccinia virus; assay type: in vivo; conditions: WR 1×10^5 pfu; HU 80 mg/kg/day on days 2 to 14, started 2 days after infection
[5] = tested on: mice infected with the WR strain of vaccinia virus; assay type: in vivo, BALB/c mice; conditions: for survival: WR low (1×10^5 pfu) or high (1×10^7 pfu) dose, HU 50 mg/kg/day i.p. days 0 to 14, G-CSF 25 μg/kg/day i.p. days 0 to 5; for lung tissue histology: compared with other groups
mice given LPS = test: LPS-induced sepsis model (II), survival and ANC (Experimental Example 7); assay type: in vivo, BALB/c mice; conditions: for survival: until day 12; for ANC: blood on day 12
Experimental: Twenty-one BALB/c mice (about 8 weeks old) were divided into 3 groups (LPS, LPS+HU_30, LPS+HU_60; n=7/group). All mice received intraperitoneal administration of LPS at 10 mg/kg on day 0. The mice of the group (LPS+HU_30) received hydroxyurea (30 mg/kg/day, from day -1 to day 3) once a day, and the mice of the group (LPS+HU_60) received hydroxyurea (60 mg/kg/day, from day -1 to day 3) twice a day. Survival of the mice of each group was measured until day 12 at 3-day intervals, and blood samples were collected on day 12 to check the absolute neutrophil count in blood.

[6] = tested on: monkeys with systemic inflammatory syndrome induced by vaccinia virus VV^tk−; assay type: in vivo, cynomolgus monkeys
Experimental: Male cynomolgus monkeys (n=3) aged 45 to 55 months were subjected to systemic administration of only VV^tk− (1×10^8 pfu), which induces a systemic inflammatory response, or both VV^tk− and hydroxyurea (VV^tk−: 1×10^8 pfu, HU: 80 mg/kg/day and 30 mg/kg/day). Then, toxicity was evaluated by measuring levels of systemic inflammation and pustules, body temperature, body weight, and the like.

MDCK cells = test: Cytotoxicity (CC50) by MTT assay; conditions: 72 hours
[7] = tested on: mice infected with H1N1 influenza A virus (maPR8); test: Influenza virus-induced sepsis model (II), body weight and survival (Experimental Example 6); assay type: in vivo, BALB/c mice
[8] = tested on: monkeys with systemic inflammatory syndrome induced by the Western Reserve strain of vaccinia virus
[9] = tested on: mouse model with sepsis induced by lipopolysaccharide (LPS, from Escherichia coli O55: B5); test: Bacterial LPS-induced sepsis model, survival (Experimental Example 1); assay type: in vivo, mice; conditions: LPS 10 mg/kg i.p., n=7
Experimental: To identify whether treatment with hydroxyurea could increase survival through an immune response in a mouse model with sepsis induced by lipopolysaccharide (LPS, from Escherichia coli O55: B5L2880, Sigma), an animal experiment was performed.
Each group consisted of 7 mice, and intraperitoneal administration of LPS was performed at 10 mg/kg on day 0. Two groups excluding a control group were subjected to intraperitoneal administration of hydroxyurea at 30 mg/kg once a day or twice a day for 5 days per one week starting from the day before the treatment with LPS (FIG. 1).

[10] = co-administration vs virus only
[11] = WR 1×10^8 pfu + HU, vs virus only

With `NC12CC3CC(CC(C3)C1)C2` [AMT, amantadine] the antiviral effect (H1N1 PR8) was “next clear effect”, the antiviral effect (H3N2 HongKong) was “next clear effect” and the antiviral effect (Lee) was “next clear effect”.

`CCOC(=O)C1=C[C@@H](OC(CC)CC)[C@H](NC(C)=O)[C@@H](N)C1` [Tamiflu, oseltamivir] was tested, and the survival ([1]; mouse, in vivo) was “survived regardless of the concentration”.

`NC(=O)NO` [hydroxyurea] was tested, and the “number of virus particles in blood” value [2] was “highest number of virus particles”, the “survival until day 21” value [2] was 40% and the antiviral effect (H1N1 PR8) was “did not show any antiviral effect”. The “severity in leakage and exudate levels in the alveoli and ischemic change level in the liver tissue (order of groups)” value [3] was “in the order of the group having received hydroxyurea, the group having received G-CSF, and the control group”, the “protective effect (survival, body weight)” value [4] was “protective effect” and the “absolute neutrophil count (ANC)” value ([5]; WR high dose (1×10^7 pfu), HU 50 mg/kg/day) was “decreased absolute neutrophil count”. For the same molecule, the survival [5] was “increased survival”, the lung tissue histology [5] was “improved aspect” and the “infection by immunofluorescence staining for protein A56 (bronchi)” value ([5]; lung tissue, between saline, G-CSF and HU groups) was “no significant difference between the three groups”. The survival (mice given LPS; LPS+HU_30: 30 mg/kg/day, day -1 to day 3, once a day) was “remarkably increased survival”, the ANC (mice given LPS; LPS+HU_30) was “decreased ANC” and the survival (mice given LPS; LPS+HU_60: 60 mg/kg/day, day -1 to day 3, twice a day) was “remarkably increased survival”. The ANC (mice given LPS; LPS+HU_60) was “decreased ANC”, the “body weight / condition course” value ([1]; mouse, in vivo) was “returned to a healthy condition on day 18” and the surviving mice ([1]; n=7) was 5 mice. The antiviral effect (H3N2 HongKong) was “did not show any antiviral effect”, the “systemic inflammation and skin rash lesions (pustules)” value ([6]; VV^tk− 1×10^8 pfu + HU 80 mg/kg/day and 30 mg/kg/day, vs virus only) was “remarkably weakened systemic inflammation and inhibition of skin rash lesions such as pustules” and the absolute neutrophil count ([6]; co-administration) was “decreased on average and remained stable”. The “number of virus particles” value ([6]; co-administration) was “decreased on average and remained stable”, the body temperature [6, 10] was “did not show any significant increase in body temperature” and the body weight loss [6, 10] was “no difference in body weight loss”. The CC50 (MDCK cells) was 1,561 μg/ml, the survival ([7]; hydroxyurea 50 mg/kg q.d. days -2 to 14, until day 20, n=7) was 70% and the body weight ([7]; hydroxyurea 50 mg/kg q.d., loss until day 10) was “recovered to the initial weight on day 20”. For the same molecule, the antiviral effect (Lee) was “did not show any antiviral effect”, the “systemic inflammation and skin rash lesions (pustules)” value ([8]; WR 1×10^8 pfu + HU 80 mg/kg/day and 30 mg/kg/day, vs virus only) was “remarkably weakened systemic inflammation and inhibition of skin rash lesions such as pustules” and the body temperature [8, 11] was “did not show any significant increase in body temperature”. For the same molecule, the body weight loss [8, 11] was “no difference in body weight loss”, the “absolute lymphocyte count (ALC)” value ([8]; co-administration group, blood) was “decreased on average and remained stable” and the “absolute neutrophil count (ANC)” value ([8]; co-administration group, blood) was “decreased on average and remained stable”. For the same molecule, the “white blood cell count (WBC)” value ([8]; co-administration group, blood) was “decreased on average and remained stable”, the “number of virus particles in blood” value ([8]; day 8 after virus administration, co-administration vs virus only) was “no significant difference” and the “survival until day 12” value ([9]; hydroxyurea 30 mg/kg i.p. once a day) was 17%. The “survival until day 12” value ([9]; hydroxyurea 30 mg/kg i.p. twice a day) was 43%.

In the case of `NC(=O)c1ncn([C@@H]2O[C@H](CO)[C@@H](O)[C@H]2O)n1` [ribavirin], the antiviral effect (H1N1 PR8) is reported as “next clear effect”, the antiviral effect (H3N2 HongKong) is reported as “next clear effect” and the antiviral effect (Lee) is reported as “next clear effect”.

B1: G-CSF (protein, UniProt P09919 31-207, looked up)
Granulocyte …: TPLGPASSLPQSFLLKCLEQVRKIQGDGAALQEKLVSECATYKLCHPEELVLLGHSLGIPWAPLSSCPSQALQLAGCLSQLHSGLFLYQGLLQALEGISPELGPTLDTLQLDVADFATTIWQQMEELGMAPALQPTQGAMPAFASAFQRRAGGVLVASHLQSFLEVSYRVLRHLAQP
B1 was tested, and the “time within which all mice died after administration of the WR strain” value [2] was no more than 14 days, the “severity in leakage and exudate levels in the alveoli and ischemic change level in the liver tissue (order of groups)” value [3] was “in the order of the group having received hydroxyurea, the group having received G-CSF, and the control group” and the survival [5] was “decreased survival”. For the same molecule, the “absolute neutrophil count (ANC)” value ([5]; WR low or high dose, G-CSF 25 μg/kg/day) was “remarkably increased absolute neutrophil count” and the lung tissue histology [5] was “lung edema was observed”.
